Data taken from PMC11149917, “Translational and Therapeutic Evaluation of RAS-GTP Inhibition by RMC-6236 in RAS-Driven Cancers” (Cancer Discovery, 2024).
Values joined by “and” are separate entries in the source; they are usually repeats but may differ in a detail not shown here. Equal values may be shown once.

System: DUSP6 mRNA in NCI-H441 xenograft tumors
Assay: In vivo PD by DUSP6 qPCR and PK/PD relationship
Set-up: species or system mouse
Details: for % inhibition of DUSP6 vs control: NCI-H441 xenograft tumor
Description: Tumor-bearing animals were randomized and assigned into groups (n = 1–10/group). The vehicle at 10 mL/kg or RMC-6236 at indicated doses was administered via oral gavage daily, and animals were treated for 28 days, or up to 90 days if PFS was being assessed. […] For single-dose PKPD study, mice were randomized and assigned into groups (n = 3/dose/time point). A single dose of RMC-6236 was administered orally at either 3, 10, or 25 mg/kg. Blood and tissues, including the tumor, brain, colon, ear skin, and muscle, were harvested at indicated time points. Whole blood was collected in K2EDTA Microtainer tubes, incubated for 5 minutes, and snap-frozen in liquid nitrogen. The tissue was either fixed in 10% formalin or snap-frozen in liquid nitrogen for further analysis.
RNA was extracted from at least 20 mg of tissue using an RNeasy Mini Kit (Qiagen, 74104) and a High-Throughput Tissue grinder following the manufacturer's protocol. Reverse transcription was carried out using High-Capacity cDNA Reverse Transcription Kit (ABI, 4368814) according to the manufacturer's protocol. The cDNA product was used for qPCR analysis using TaqMan Gene-Expression Master Mix (ABI, 4369016). TaqMan primer probes specific to DUSP6 (human—Hs00737962_m1, murine—Mm00518185_m1, FAM-MGB) and 18S (RNA18S1; human—Hs99999901_s1, murine—Mm03928990_g1, FAM-MGB, used as an internal control gene) were used to detect the levels from each sample in duplicates using a 10 µL final reaction volume in a 384-well clear optical reaction plate. For qPCR, Ct values of DUSP6 and 18S were obtained for analysis. DUSP6 Ct value was normalized to 18S, and then the mean relative mRNA expression levels of each group were normalized to the vehicle control group. Values were plotted as relative change in mRNA expression compared with vehicle. Means ± SEM were shown.
Concentrations of RMC-6236 in tumor or normal tissues and percentage of DUSP6 inhibition as compared with the vehicle control from individual animals were collected and analyzed post a single dose of RMC-6236 ranging from 0.3 to 100 mg/kg (Supplementary Table S6). A 3-parameter sigmoidal exposure–response model was fitted to the data in GraphPad Prism to derive EC50 and EC90 values.

For `CCn1c(-c2cc(N3CCN(C)CC3)cnc2[C@H](C)OC)c2c3cc(ccc31)-c1csc(n1)C[C@H](NC(=O)[C@H]1C[C@@H]1C)C(=O)N1CCC[C@H](N1)C(=O)OCC(C)(C)C2` [RMC-6236], the “DUSP6 mRNA Expression (%)” value (Model Development Dataset, 40mg/kg_study8r (doses every 24 h, 0-[…]), 240 h) was 0.8569%, the “DUSP6 mRNA Expression (%)” value (Model Validation Dataset, 10mg/kg_study6, 1 h) was 45.187% and the “DUSP6 mRNA Expression (%)” value (Model Validation Dataset, 10mg/kg_study6, 8 h) was 5.053%. The “DUSP6 mRNA Expression (%)” value (Model Validation Dataset, 10mg/kg_study6, 24 h) was 13.225%, the “DUSP6 mRNA Expression (%)” value (Model Validation Dataset, 10mg/kg_study6, 48 h) was 62.867% and the “DUSP6 mRNA Expression (%)” value (Model Validation Dataset, 25mg/kg_study6, 1 h) was 48.7936%. For the same molecule, the “DUSP6 mRNA Expression (%)” value (Model Validation Dataset, 25mg/kg_study6, 8 h) was 5.7726%, the “DUSP6 mRNA Expression (%)” value (Model Validation Dataset, 25mg/kg_study6, 24 h) was 9.122% and the “DUSP6 mRNA Expression (%)” value (Model Validation Dataset, 25mg/kg_study6, 48 h) was 14.7114%. For the same molecule, the “DUSP6 mRNA Expression (%)” value (Model Validation Dataset, 25mg/kg_study6, 72 h) was 12.5199%, the “DUSP6 mRNA Expression (%)” value (Model Validation Dataset, 50mg/kg_study6, 1 h) was 16.7798% and the “DUSP6 mRNA Expression (%)” value (Model Validation Dataset, 50mg/kg_study6, 8 h) was 5.52%. The “DUSP6 mRNA Expression (%)” value (Model Validation Dataset, 50mg/kg_study6, 24 h) was 5.873%, the “DUSP6 mRNA Expression (%)” value (Model Validation Dataset, 50mg/kg_study6, 48 h) was 10.9912% and the “DUSP6 mRNA Expression (%)” value (Model Validation Dataset, 50mg/kg_study6, 72 h) was 10.0613%. For the same molecule, the EC50 (Mus musculus, NCI-H441, read-out: EC50, inhibition of DUSP6 expression vs RMC-6236 concentration (PK/PD relationship)) was 117 nM, the EC90 (Mus musculus, NCI-H441, read-out: EC90, inhibition of DUSP6 expression vs RMC-6236 concentration (PK/PD relationship)) was 1120 nM and the “% inhibition of DUSP6 vs control” value (study NCI-H441#6, 10 mg/kg, 8h) was 94.3996% and 97.36% and 93.0812%. The “% inhibition of DUSP6 vs control” value (study NCI-H441#6, 10 mg/kg, 24h) was 92.8123% and 75.0577% and 92.455%, the “% inhibition of DUSP6 vs control” value (study NCI-H441#6, 25 mg/kg, 8h) was 92.2964% and 95.8141% and 94.5716% and the “% inhibition of DUSP6 vs control” value (study NCI-H441#6, 25 mg/kg, 24h) was 90.5813% and 91.1816% and 90.8706%. The “% inhibition of DUSP6 vs control” value (study NCI-H441#6, 25 mg/kg, 48h) was 88.2424% and 92.0524% and 75.571%, the “% inhibition of DUSP6 vs control” value (study NCI-H441#6, 50 mg/kg, 8h) was 94.9176% and 94.1618% and 94.3607% and the “% inhibition of DUSP6 vs control” value (study NCI-H441#6, 50 mg/kg, 24h) was 95.6815% and 94.6463% and 92.0524%. For the same molecule, the “% inhibition of DUSP6 vs control” value (study NCI-H441#6, 50 mg/kg, 48h) was 89.9053% and 88.838% and 88.2831%, the “% inhibition of DUSP6 vs control” value (study NCI-H441#6, 100 mg/kg, 8h) was 96.2144% and 97.8257% and 94.7565% and the “% inhibition of DUSP6 vs control” value (study NCI-H441#6, 100 mg/kg, 24h) was 96.5645% and 97.2858% and 99.0371%. The “% inhibition of DUSP6 vs control” value (study NCI-H441#6, 100 mg/kg, 48h) was 97.3783% and 95.7557% and 95.9427%, the “% inhibition of DUSP6 vs control” value (study NCI-H441#8, 25 mg/kg, 2h) was 93.3108% and 86.9874% and 84.6322% and the “% inhibition of DUSP6 vs control” value (study NCI-H441#8, 25 mg/kg, 8h) was 99.2306% and 96.8685% and 99.3302%. The “% inhibition of DUSP6 vs control” value (study NCI-H441#8, 25 mg/kg, 24h) was 93.9294% and 85.711% and 93.9083%, the “% inhibition of DUSP6 vs control” value (study NCI-H441#8, 40 mg/kg, 2h) was 77.4222% and 82.1626% and 99.5296% and the “% inhibition of DUSP6 vs control” value (study NCI-H441#8, 40 mg/kg, 8h) was 94.9481% and 94.7152% and 96.3527%. For the same molecule, the “% inhibition of DUSP6 vs control” value (study NCI-H441#8, 40 mg/kg, 24h) was 94.2767% and 98.3791% and 96.9223%, the “% inhibition of DUSP6 vs control” value (study NCI-H441#10, 0.3 mg/kg, 8h) was 46.2112% and 70.874% and 74.5563% and the “% inhibition of DUSP6 vs control” value (study NCI-H441#10, 0.3 mg/kg, 48h) was 38.4266% and 52.8484% and 73.0122%. The “% inhibition of DUSP6 vs control” value (study NCI-H441#10, 1 mg/kg, 48h) was 52.6847% and 48.936% and 65.7214%, the “% inhibition of DUSP6 vs control” value (study NCI-H441#10, 10 mg/kg, 8h) was 85.6375% and 96.6614% and 94.5007% and the “% inhibition of DUSP6 vs control” value (study NCI-H441#10, 10 mg/kg, 24h) was 85.7861% and 76.2602% and 81.9462%. For the same molecule, the “% inhibition of DUSP6 vs control” value (study NCI-H441#10, 10 mg/kg, 48h) was 44.699% and 49.9869% and 60.6243%, the “% inhibition of DUSP6 vs control” value (study NCI-H441#13, 0.3 mg/kg, 8h) was 54.8539% and 55.936% and 78.3465% and the “% inhibition of DUSP6 vs control” value (study NCI-H441#13, 1 mg/kg, 2h) was 47.4169% and 56.5427% and 69.4833%.
